Measurements from patent publication US9446088B2, “Preparation and use of a plant extract from solanum glaucophyllum with an enriched content of 1,25 dihydroxyvitamin D3 glycosides and quercetin glycosides” (HERBONIS AG, priority 2008, dated 2016).

Columns and labels:
[1] = test system: commercial broiler chickens; test: Broiler experiment for leg anomalies (tibial dyschondroplasia); format: in vivo; design: dose or concentration left out as unconfirmed; details: after day 14 of treatment
Experimental: In experiment 2, male one-day old broiler chickens were fed a commercial diet containing 1,000 IUD/kg feed of vitamin D3 ad libitum. […] 76.8 μg 1,25-Dihydroxyvitamin D3 (determined after in vitro hydrolysis of the extract).

[2] = test system: Japanese quails (Coturnix japonica) on Vitamin D-deficient diet; test: Japanese quail eggshell bioassay for vitamin D activity; format: in vivo
Excerpt: From Rambeck et al. (see Rambeck et al, Ann. Nutr. Metab. 30, 9-14, (1986)) it is known that the quail egg shell assay is used as a simple bioassay to assess Vitamin D activity. According to this assay, Japanese quails (Coturnix japonica) of egg laying age and selected for a laying performance of >80% were set on a Vitamin D-deficient diet containing all other nutrients in optimal amounts. After approximately 8 days, the laying performance as the most sensitive marker dropped below 10%. Then, the test animals were randomly divided into groups of 10 animals and the diet was changed to the same diet, but supplemented with the substance to be tested. Laying performance was monitored for 21 days together with other markers of vitamin D-metabolism, such as alkaline phosphatase and calcium in plasma.
In Experiment 1 three groups of quails received 100, 200 and 400 international units of vitamin D3 per kg feed, 5 groups received 2, 8, 32, 128 and […] purified plant extract and one group was given synthetic 1, 25-Dihydroxyvitamin D3 (1 μg/kg feed) and another group received ground dried leaves of Solanum glaucophyllum (1000 mg/kg feed).

SMILES	Healthy animals. (%) [1] [b %]	Occurrence of TD (%) [1]	Occurrence of other leg anomalies (%) [1] [b %]	Eggshell weight (ESW) per day and animal, days 5-21 ([2]; 1 μg per kg feed) [g]	Average egg weight between day 1 and 21 ([2]; 1.0 μg/kg feed) [g]	Egg weight in % of standard group Vitamin D3 400 IUD/kg feed ([2]; 1.0 μg/kg feed) [%]	Eggshell weight (ESW) per day and animal, days 5-21 ([2]; 100 IUD per kg feed) [g]	Average egg weight between day 1 and 21 ([2]; 100 IUD/kg feed) [g]	Egg weight in % of standard group Vitamin D3 400 IUD/kg feed ([2]; 100 IUD/kg feed) [%]	Eggshell weight (ESW) per day and animal, days 5-21 ([2]; 200 IUD per kg feed) [g]	Average egg weight between day 1 and 21 ([2]; 200 IUD/kg feed) [g]	Egg weight in % of standard group Vitamin D3 400 IUD/kg feed ([2]; 200 IUD/kg feed) [%]	Eggshell weight (ESW) per day and animal, days 5-21 ([2]; 400 IUD per kg feed) [g]	Average egg weight between day 1 and 21 ([2]; 400 IUD/kg feed) [g]	time by which laying performance passed 50% after beginning of treatment ([2]; onset of egg laying) [h]
C=C1/C(=C\C=C2/CCC[C@]3(C)[C@@H]([C@H](C)CCCC(C)(C)O)CC[C@@H]23)C[C@@H](O)C[C@@H]1O [Synthetic 1,25(OH)2D3, 1,25-dihydroxyvitamin D3]	92.9	3.55 *b %	3.55	0.502	10.58	99	–	–	–	–	–	–	–	–	–
C=C1CC[C@H](O)C/C1=C/C=C1\CCC[C@]2(C)[C@@H]([C@H](C)CCCC(C)C)CC[C@@H]12 [Vitamin D3, cholecalciferol]	–	–	–	–	–	–	0.231	9.61	90	0.434	10.40	97	0.738	10.70	48 to 72
